Source: patent US20100234238A1, “METHOD FOR PROFILING KINASE INHIBITORS” (Janssen Pharmaceutica N V, priority 2006, published 2010)

Test system: tyrosine kinase activity in xenograft tumor lysates
Assay: PAMCHIP96 (140-peptide array) profiling of xenograft tumor lysates in absence or presence of MTKI
Assay type: biochemical
Conditions: 5 μM
Procedure: 100 mg of frozen tumor or tissue blocks, or sections, are lysed in 1 ml of M-PER buffer (PIERCE) containing phosphatase and protease inhibitors (HALT, PIERCE). The suspension is mixed using a ULTRA-TURRAX blender (IKA werke), and centrifuged twice for 10 minutes at 12 000×g. Supernatant lysates are filtered through a 0.2 micrometer filter (Anotop 0.2 μm anopore filter; Whatmann). Lysates are flash frozen in liquid nitrogen and stored at −80C.
Just prior to the PAMCHIP experiment, total protein content is quantitated in the lysates and lysates are diluted to 1 mg/ml in a total volume of 200 μl, with M-PER phosphatase and protease inhibitors (HALT, PIERCE). 10 μg of total lysate (corresponding to 10 μl) will be used per well on the PAMCHIP96.
To all 200 μl lysates 10 units of benzonase (Novagen) is added and lysates are further incubated for 30 min on ice and next centrifuged for 10 minutes at 12 000×g. The supernatant is then 1:1 diluted with compound or DMSO diluted to the appropriate concentration in water, and lysates are further incubated exactly 60 min on ice. Meanwhile, a PAMCHIP96 tyrosine peptide chip (PAMGENE) is blocked with 2% BSA (filtered through a 0.2 μm anopore filter; Whatmann) using the standard setting of a PAMSTATION96 (PAMGENE).
The composition of the kinase buffer is as follows: 1×ABL buffer (NEB), 0.5 mg/ml BSA (from 10 mg/ml NEB stock), 100 μM ATP (dissolved and diluted in 1×ABL buffer), 5 μg/ml PY20-FITC (ExAlpha Biologicals, azide-free preparation). A twofold concentrated kinase buffer is prepared chilled on ice, DMSO or compound is added as appropriate, and the solution is added 1:1 to the (compound treated) ice cold lysates, and immediately applied to a tyrosine peptide PAMCHIP96. The assay is run on a PAMSTATION96 according to standard procedures: after loading of the plate, solution is pumped once onto the wells, a first exposure is read (150 mSec) and then a kinetic reading program (reading every 5 min for 150 mSec) is run for 60 min. Lysates are run in 6 technical replicates for each condition; replicates are always applied horizontally next to each other to avoid vertical strip effects of the chip.
The data (spot images) are further quantified and linked to the peptide identities using EVOLVE PAMGRID software (PAMGENE). The quantified data are then fit to a curve using CurveFitHT software (PAMGENE) using the Vinip2 curve fitting algorithm, applied on the first 30 min of the assay; the initial velocity is derived at the first kinetic time point read. All subsequent data analyses were done on initial velocities (Vini) using the software packages Omniviz and R (Ihaka, R. and Gentlemen, R. (1996) R: a language for data analysis and graphics. J. Comput. Graph. Stat., 5, 299-314).
After replacing the Vini's lower than 0.1 by 0.1, all Vini's were log 2-transformed to approach normality. […] This test was done for each peptide separately using a mixed model (Littell, R. C., Milliken, G. A., Stroup, W. W., Wolfinger, R. D. 1996. SAS system for mixed models. Cary, N. C.: SAS Institute Inc.) allowing the incorporation of both technical variation (i.e., the variation across replicates) and biological variation (i.e., the variation among the various responding and non-responding cell lines or tumors). Variation between cell lines or tumors in Vini and in treatment effect on Vini was modeled respectively by random intercepts and random compound effects per cell line or tumor, nested in response status. The difference in compound-induced reduction in Vini between responding and non-responding cell lines or tumors was tested through the interaction between compound treatment and response status, both modeled as fixed effects.

COc1cc2ncnc3c2cc1OCCCCCN(C)Cc1ccc(Br)cc1N3 [MTKI, 4,6-ethanediylidenepyrimido[4,5-b][6,1,12]benzoxadiazacyclopentadecine, 17-bromo-8,9,10,11,12,13,14,19-octahydro-20-methoxy-13-methyl-]
ratio of initial velocity of peptide phosphorylation (A431 xenograft tumor lysate, CDK7_157_169_S164): 0.60 | ratio of initial velocity of peptide phosphorylation (A431 xenograft tumor lysate, EPHB1_921_933_Y928): 0.39 | ratio of initial velocity of peptide phosphorylation (A431 xenograft tumor lysate, FAK1_569_581_Y576/Y577): 0.58 | ratio of initial velocity of peptide phosphorylation (A431 xenograft tumor lysate, GSK3B_209_221_Y216): 0.67 | ratio of initial velocity of peptide phosphorylation (A431 xenograft tumor lysate, K2C6E_53_65_S59): 0.54 | ratio of initial velocity of peptide phosphorylation (A431 xenograft tumor lysate, MBP_259_271_Y261/Y268/S266): 0.60 | ratio of initial velocity of peptide phosphorylation (A431 xenograft tumor lysate, MK10_216_228_T221/Y223): 0.60 | ratio of initial velocity of peptide phosphorylation (A431 xenograft tumor lysate, NCF1_313_325_S315/S320): 0.66 | ratio of initial velocity of peptide phosphorylation (A431 xenograft tumor lysate, NTRK2_699_711_Y702/Y706/Y707): 0.46 | ratio of initial velocity of peptide phosphorylation (A431 xenograft tumor lysate, P2AB_297_309_T304/Y307): 0.65 | ratio of initial velocity of peptide phosphorylation (A431 xenograft tumor lysate, PGFRB_572_584_Y579/Y581): 0.64 | ratio of initial velocity of peptide phosphorylation (A431 xenograft tumor lysate, RAF1_331_343_S337/S338/Y339/Y340): 0.58 | ratio of initial velocity of peptide phosphorylation (A431 xenograft tumor lysate, RB_804_816_S807/S811): 0.53 | ratio of initial velocity of peptide phosphorylation (A431 xenograft tumor lysate, SYN1_2_14_S9): 0.76 | ratio of initial velocity of peptide phosphorylation (A431 xenograft tumor lysate, TYRO3_679_691_Y686): 0.55 | ratio of initial velocity of peptide phosphorylation (A431 xenograft tumor lysate, VEGFR2_944_956_Y951): 0.58 | ratio of initial velocity of peptide phosphorylation (A431 xenograft tumor lysate, VINC_815_827_Y821): 0.52 | ratio of initial velocity of peptide phosphorylation (BT474 xenograft tumor lysate, EPHB1_921_933_Y928): 0.70 | ratio of initial velocity of peptide phosphorylation (BT474 xenograft tumor lysate, FAK1_569_581_Y576/Y577): 0.89 | ratio of initial velocity of peptide phosphorylation (BT474 xenograft tumor lysate, GSK3B_209_221_Y216): 0.89 | ratio of initial velocity of peptide phosphorylation (BT474 xenograft tumor lysate, K2C6E_53_65_S59): 0.80 | ratio of initial velocity of peptide phosphorylation (BT474 xenograft tumor lysate, MBP_259_271_Y261/Y268/S266): 0.85 | ratio of initial velocity of peptide phosphorylation (BT474 xenograft tumor lysate, MK10_216_228_T221/Y223): 0.83 | ratio of initial velocity of peptide phosphorylation (BT474 xenograft tumor lysate, NCF1_313_325_S315/S320): 1.02 | ratio of initial velocity of peptide phosphorylation (BT474 xenograft tumor lysate, NTRK2_699_711_Y702/Y706/Y707): 0.77 | ratio of initial velocity of peptide phosphorylation (BT474 xenograft tumor lysate, P2AB_297_309_T304/Y307): 0.62 | ratio of initial velocity of peptide phosphorylation (BT474 xenograft tumor lysate, PGFRB_572_584_Y579/Y581): 0.75 | ratio of initial velocity of peptide phosphorylation (BT474 xenograft tumor lysate, RAF1_331_343_S337/S338/Y339/Y340): 0.94 | ratio of initial velocity of peptide phosphorylation (BT474 xenograft tumor lysate, RB_804_816_S807/S811): 0.80 | ratio of initial velocity of peptide phosphorylation (BT474 xenograft tumor lysate, SYN1_2_14_S9): 0.96 | ratio of initial velocity of peptide phosphorylation (BT474 xenograft tumor lysate, TYRO3_679_691_Y686): 0.84 | ratio of initial velocity of peptide phosphorylation (BT474 xenograft tumor lysate, VEGFR2_944_956_Y951): 0.84 | ratio of initial velocity of peptide phosphorylation (BT474 xenograft tumor lysate, VINC_815_827_Y821): 0.85 | ratio of initial velocity of peptide phosphorylation (DU145 xenograft tumor lysate, CDK7_157_169_S164): 0.96 | ratio of initial velocity of peptide phosphorylation (DU145 xenograft tumor lysate, EPHB1_921_933_Y928): 0.81 | ratio of initial velocity of peptide phosphorylation (DU145 xenograft tumor lysate, FAK1_569_581_Y576/Y577): 0.72 | ratio of initial velocity of peptide phosphorylation (DU145 xenograft tumor lysate, GSK3B_209_221_Y216): 1.07 | ratio of initial velocity of peptide phosphorylation (DU145 xenograft tumor lysate, K2C6E_53_65_S59): 0.77 | ratio of initial velocity of peptide phosphorylation (DU145 xenograft tumor lysate, MBP_259_271_Y261/Y268/S266): 0.81 | ratio of initial velocity of peptide phosphorylation (DU145 xenograft tumor lysate, MK10_216_228_T221/Y223): 0.77 | ratio of initial velocity of peptide phosphorylation (DU145 xenograft tumor lysate, NCF1_313_325_S315/S320): 0.97 | ratio of initial velocity of peptide phosphorylation (DU145 xenograft tumor lysate, NTRK2_699_711_Y702/Y706/Y707): 0.77 | ratio of initial velocity of peptide phosphorylation (DU145 xenograft tumor lysate, P2AB_297_309_T304/Y307): 0.81 | ratio of initial velocity of peptide phosphorylation (DU145 xenograft tumor lysate, PGFRB_572_584_Y579/Y581): 0.72 | ratio of initial velocity of peptide phosphorylation (DU145 xenograft tumor lysate, RAF1_331_343_S337/S338/Y339/Y340): 0.83 | ratio of initial velocity of peptide phosphorylation (DU145 xenograft tumor lysate, RB_804_816_S807/S811): 0.76 | ratio of initial velocity of peptide phosphorylation (DU145 xenograft tumor lysate, SYN1_2_14_S9): 0.88 | ratio of initial velocity of peptide phosphorylation (DU145 xenograft tumor lysate, TYRO3_679_691_Y686): 0.83 | ratio of initial velocity of peptide phosphorylation (DU145 xenograft tumor lysate, VEGFR2_944_956_Y951): 0.95 | ratio of initial velocity of peptide phosphorylation (DU145 xenograft tumor lysate, VINC_815_827_Y821): 0.84
